The source of these data is publication PMC6731340, “Evaluation of synergy between host and pathogen-directed therapies against intracellular Leishmania donovani” (International Journal for Parasitology: Drugs and Drug …, 2019).

Read-outs that look alike come from different tables or passages of the source.

The subject of series [1] is L. donovani extracellular promastigotes. The series can be described thus: Resazurin-based drug susceptibility assay on promastigotes. The format is cell-based. Conditions: Leishmania donovani, 72 h drug at 25 °C. The method, then:
(§1) Leishmania donovani strain (ATCC 30030; ATCC; Manassas VA) was used in all studies and grown via manufacture's specification. The promastigotes screening were performed as described previously, with few modifications ([Kulshrestha et al., 2013]). Late log-phase promastigotes (1 × 10^5 per one 96-well) were incubated with drug for 72 h at 25 °C. Resazurin was added [0.002% (w/v)], incubated for 24 h and assessed fluorometrically (ex: 544 nm/em: 590 nm; SpectraMax M2, Molecular Devices, Sunnyvale, CA). L. donovani axenic amastigotes were differentiated as described previously, with little modification ([Ephros et al., 1997]). Late log-phase promastigotes were differentiated into axenic amastigotes in a low pH (6.3) medium for 96 h at 37 °C. Fully differentiated axenic amastigotes (2 × 10^5 per one 96-well) were incubated 72 h with drug at 37 °C, and resazurin assay was then performed as indicated above.
Background: Resazurin is reduced to fluorescent resorufin, in cell work by metabolically active cells.

The test system of series [2] is L. donovani axenic amastigotes. The experiment in a line: Resazurin-based drug susceptibility assay on axenic amastigotes. The format is cell-based. Particulars: Leishmania donovani, 72 h drug at 37 °C. The method, then: as §1
For series [3], the system named is L. donovani intracellular amastigotes. The series can be described thus: Image-based (Giemsa) evaluation of intracellular anti-leishmanial activity in infected BMDMs. The series is classed as cell-based. Particulars: Leishmania donovani, BMDM, 72 h, Giemsa stain. The method, then:
An image-based anti-leishmanial assay was used as described previously with slight modification ([Collier et al., 2016]). BMDMs seeded on round glass coverslips (5 × 10^5 cells per one 24-well) were allowed to adhere overnight, infected with stationary phase L. donovani promastigotes (MOI 1:10), incubated overnight, and washed (3×) with warmed serum-free media. Compounds were added, incubated for 72 h, washed (3×) with PBS, fixed with methanol and stained with Giemsa stain (1:20 in H2O). An EVOS XL (100×, Thermo Fisher Scientific) was used for imaging. L. donovani amastigotes per 100 macrophages was determined, in duplicate, and in a blinded fashion.

For series [4] the test system is unchanged. The series can be described thus: Modified resazurin-based viability analysis of L. donovani in infected macrophages. The format is cell-based, Leishmania donovani. Particulars: for Selectivity (LD50/IC50): LD50 macrophages / resazurin intracellular IC50; for IC50: Leishmania donovani, BMDM, infected BMDMs, 72 h. The method, then:
BMDMs (1 × 10^5 per one 96-well) infected overnight with stationary phase L. donovani promastigotes (MOI 1:10), were washed (3×) with serum free DMEM, and incubated with compounds for 72 h. Then, parasites were rescued with BMDM controlled lysis, modified from a previous report ([Kiderlen and Kaye, 1990]). In brief, cells were washed with serum-free HEPES-buffered RPMI (HEPES-RPMI; 1×), lysed (20 min) with HEPES-RPMI (100 μL/well) with 0.008% SDS (w/v), SDS neutralized with HEPES-RPMI with 17% FBS (v/v; 150 μL/well) and placed in an air-tight container (25 °C for 96 h). Resazurin [0.02% (w/v); 25 μL] was added, incubated (24 h) and was assessed fluorometrically.

In series [5] the test system is Mouse bone marrow-derived macrophages (BMDMs). The experiment in a line: LDH mammalian cytotoxicity assay. Conditions: 50% Lethal Dose for BMDMs.
Source text: (§2) Mouse bone marrow-derived macrophages (BMDMs) isolation from BALB/c mice and culture was done as described previously ([Weischenfeldt and Porse, 2008]), and approved by the Animal Care and Use Committees at UNC. A lactate dehydrogenase (LDH) assay (Thermo Fisher Scientific, Grand Island, NY) was used to determine cytotoxicity per manufacturer's directions.
For series [6] the test system is unchanged. Particulars: BALB/c.
Source text: as §2
The next series concerns VL patients. Set-up: method as in Sundar et al., 2008. Conditions: AMB alone; ref Sundar et al., 2008; cited from earlier work.
The test system of series [7] is intracellular L. mexicana. Set-up: method as in Pan et al., 2012. Particulars: ref Pan et al., 2012; read-out: IC50, anti-leishmanial activity against intracellular L. mexicana; cited from earlier work.
The next series concerns promastigotes. Further details: method as in Pan et al., 2012. Conditions: ref Pan et al., 2012; read-out: IC50, direct activity against promastigotes; cited from earlier work.
On the set-up of series [8]: method as in earlier work. Particulars: ref Mishra and Singh, 2013; Perez-Victoria et al., 2006; Seifert et al., 2007; cited from earlier work.
For the next series, the system named is L. donovani amastigotes. Set-up: method as in De Muylder et al., 2011. Conditions: intracellular vs axenically grown amastigotes; ref De Muylder et al., 2011; cited from earlier work.

One may read the IC50 as the concentration that inhibits the measured activity by half. `NCC(=O)Nc1ccc(-n2nc(C(F)(F)F)cc2-c2ccc3c(ccc4ccccc43)c2)cc1` [AR-12]: the IC50 in series [1] is 3.3 ± 0.42 µM; in [2], 3.45 ± 0.07 µM; in series [3], 1.18 ± 0.18 µM; in series [4], 1.44 ± 0.08 µM. Besides, the “Selectivity (LD50/IC50)” value in series [4] turned out to be 8. Moreover, the “Cytotoxicity LD50” value in series [5] is 11.1 ± 2.5 µM.

As to `C[C@@H]1[C@H](O)[C@@H](C)/C=C/C=C/C=C/C=C/C=C/C=C/C=C/[C@H](O[C@@H]2O[C@H](C)[C@@H](O)[C@H](N)[C@@H]2O)C[C@@H]2O[C@](O)(C[C@@H](O)C[C@@H](O)[C@H](O)CC[C@@H](O)C[C@@H](O)CC(=O)O[C@H]1C)C[C@H](O)[C@H]2C(=O)O` [Amphotericin B, amphotericin B], the IC50 in [1] came out at 0.047 ± 0.004 µM; in series [2], 0.049 ± 0.005 µM; in series [3], 0.024 ± 0.001 µM; in series [4] it was 0.033 ± 0.011 µM. Besides, the “Selectivity (LD50/IC50)” value in series [4] was determined as 1167. For the same compound, the “Cytotoxicity LD50” value in [6] was found to be 38.5 ± 4.95 µM. In addition, in the series with VL patients, the VL patients cured is recorded as 91%.

`CC(=O)C1=CC[C@H]2[C@@H]3CCC4=CC(=O)CC[C@]4(C)[C@H]3C[C@@H](O)[C@]12C` [DNER, 6,7-dihydroneridienone]: the IC50 in [7] was 1400 nM; in the series on promastigotes it was 9200 nM.

On to `CCCCCCCCCCCCCCCCOP(=O)([O-])OCC[N+](C)(C)C` [Miltefosine, miltefosine], for which the IC50 in series [1] came to 5.4 ± 0.42 µM; in [3], 1.1 ± 0.37 µM; in [4], 0.55 ± 0.15 µM. Besides, the drug half-life in series [8] was about 150 h. The “Cytotoxicity LD50” value in [5] came out at 62.5 ± 4.95 µM.

Take `NC[C@@H]1O[C@H](O[C@H]2[C@@H](O)[C@H](O[C@@H]3[C@@H](O)[C@H](N)C[C@H](N)[C@H]3O[C@H]3O[C@H](CO)[C@@H](O)[C@H](O)[C@H]3N)O[C@@H]2CO)[C@H](N)[C@@H](O)[C@@H]1O` [Paromomycin, paromomycin]: the IC50 is 59 ± 5.66 µM in series [1], 22 ± 4.24 µM in series [2], 15.2 ± 4.67 µM in series [3] and 11.6 ± 0.42 µM in [4]. Also, in [4], the “Selectivity (LD50/IC50)” value was over 68. The “Cytotoxicity LD50” value in series [5] is over 800 µM.

As to `C=CCN1CC[C@]23c4c5ccc(O)c4O[C@H]2/C(=N/N=C2\CC[C@@]4(O)[C@H]6Cc7ccc(O)c8c7[C@@]4(CCN6CC=C)[C@H]2O8)CC[C@@]3(O)[C@H]1C5` [naloxonazine], the anti-leishmanial activity result in the series with L. donovani amastigotes was “found only against intracellular L. donovani amastigotes”.
